Laboratory results from the supplement of paper PMC10307832.

Columns and labels:
Experiment in all cases: relative viability (nuclei count vs DMSO), 5 days (fraction); higher = more cells survive
[1] = test system: BEN
How it was run: (§1)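 Lung cancer cell lines were seeded in 1536-well plates and dosed by pin tool the next day, with either a single drug or a fixed anchor-drug dose combined with five library-drug doses (not always all listed) spaced in √10 steps. Five days later, one step fixed the cells and stained their nuclei (final 0.05% Triton X-100, 1% formaldehyde, 1 ug/ml Hoechst), and nuclei were counted on 4× images. Relative viability is the nuclei count in treated wells divided by the count in vehicle wells, and each value is the median of duplicate plates.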

[2] = test system: NCI-H1395
How it was run: as §1

[3] = test system: HCC-366
How it was run: as §1

[4] = test system: HARA
How it was run: as §1

[5] = test system: NCI-H2087
How it was run: as §1

[6] = test system: NCI-H2170
How it was run: as §1

[7] = test system: NCI-H2009
How it was run: as §1

[8] = test system: SK-LU-1
How it was run: as §1

[9] = test system: NCI-H2405
How it was run: as §1

[10] = test system: SK-MES-1
How it was run: as §1

[11] = test system: NCI-H661
How it was run: as §1

[12] = test system: NCI-H2342
How it was run: as §1

[13] = test system: NCI-H1734
How it was run: as §1

[14] = test system: NCI-H1437
How it was run: as §1

[15] = test system: LOU-NH91
How it was run: as §1

[16] = test system: NCI-H522
How it was run: as §1

[17] = test system: NCI-H647
How it was run: as §1

[18] = test system: HCC-827
How it was run: as §1

[19] = test system: EKVX
How it was run: as §1

[20] = test system: NCI-H1993
How it was run: as §1

[21] = test system: NCI-H1355
How it was run: as §1

O=c1cc(-c2cccc3c2Sc2ccccc2S3)oc(N2CCOCC2)c1 + Cc1cc(Nc2cc(N3CCN(C)CC3)nc(Sc3ccc(NC(=O)C4CC4)cc3)n2)n[nH]1 [Tozasertib] (partner 0.1 µM)
relative viability ([1]; first compound 0.08 µM): 0.724 | relative viability ([1]; first compound 0.253 µM): 0.487 | relative viability ([1]; first compound 0.8 µM): 0.423 | relative viability ([1]; first compound 2.53 µM): 0.456 | relative viability ([1]; first compound 8 µM): 0.617 | relative viability ([2]; first compound 0.08 µM): 0.755 | relative viability ([2]; first compound 0.253 µM): 0.738 | relative viability ([2]; first compound 0.8 µM): 0.762 | relative viability ([2]; first compound 2.53 µM): 0.681 | relative viability ([2]; first compound 8 µM): 0.703 | relative viability ([3]; first compound 0.08 µM): 0.144 | relative viability ([3]; first compound 0.253 µM): 0.367 | relative viability ([3]; first compound 0.8 µM): 0.093 | relative viability ([3]; first compound 2.53 µM): 0.0682 | relative viability ([3]; first compound 8 µM): 0.0642 | relative viability ([4]; first compound 0.08 µM): 0.099 | relative viability ([4]; first compound 0.253 µM): 0.0933 | relative viability ([4]; first compound 0.8 µM): 0.112 | relative viability ([4]; first compound 2.53 µM): 0.133 | relative viability ([4]; first compound 8 µM): 0.0897 | relative viability ([5]; first compound 0.08 µM): 0.231 | relative viability ([5]; first compound 0.253 µM): 0.282 | relative viability ([5]; first compound 0.8 µM): 0.266 | relative viability ([5]; first compound 2.53 µM): 0.191 | relative viability ([5]; first compound 8 µM): 0.171 | relative viability ([6]; first compound 0.08 µM): 0.78 | relative viability ([6]; first compound 0.253 µM): 0.739 | relative viability ([6]; first compound 0.8 µM): 0.894 | relative viability ([6]; first compound 2.53 µM): 0.715 | relative viability ([6]; first compound 8 µM): 0.676 | relative viability ([7]; first compound 0.08 µM): 0.74 | relative viability ([7]; first compound 0.253 µM): 0.725 | relative viability ([7]; first compound 0.8 µM): 0.8 | relative viability ([7]; first compound 2.53 µM): 0.737 | relative viability ([7]; first compound 8 µM): 0.578 | relative viability ([8]; first compound 0.08 µM): 0.309 | relative viability ([8]; first compound 0.253 µM): 0.312 | relative viability ([8]; first compound 0.8 µM): 0.313 | relative viability ([8]; first compound 2.53 µM): 0.269 | relative viability ([8]; first compound 8 µM): 0.322 | relative viability ([9]; first compound 0.08 µM): 0.667 | relative viability ([9]; first compound 0.253 µM): 0.752 | relative viability ([9]; first compound 0.8 µM): 0.72 | relative viability ([9]; first compound 2.53 µM): 0.638 | relative viability ([9]; first compound 8 µM): 0.681 | relative viability ([10]; first compound 0.08 µM): 0.902 | relative viability ([10]; first compound 0.253 µM): 1.04 | relative viability ([10]; first compound 0.8 µM): 0.879 | relative viability ([10]; first compound 2.53 µM): 0.848 | relative viability ([10]; first compound 8 µM): 0.852 | relative viability ([11]; first compound 0.08 µM): 0.357 | relative viability ([11]; first compound 0.253 µM): 0.357 | relative viability ([11]; first compound 0.8 µM): 0.351 | relative viability ([11]; first compound 2.53 µM): 0.339 | relative viability ([11]; first compound 8 µM): 0.353 | relative viability ([12]; first compound 0.08 µM): 0.505 | relative viability ([12]; first compound 0.253 µM): 0.495 | relative viability ([12]; first compound 0.8 µM): 0.472 | relative viability ([12]; first compound 2.53 µM): 0.532 | relative viability ([12]; first compound 8 µM): 0.466 | relative viability ([13]; first compound 0.08 µM): 0.271 | relative viability ([13]; first compound 0.253 µM): 0.261 | relative viability ([13]; first compound 0.8 µM): 0.265 | relative viability ([13]; first compound 8 µM): 0.26 | relative viability ([14]; first compound 0.08 µM): 0.385 | relative viability ([14]; first compound 0.253 µM): 0.477 | relative viability ([14]; first compound 0.8 µM): 0.43 | relative viability ([14]; first compound 2.53 µM): 0.381 | relative viability ([14]; first compound 8 µM): 0.435 | relative viability ([15]; first compound 0.08 µM): 0.652 | relative viability ([15]; first compound 0.253 µM): 0.678 | relative viability ([15]; first compound 0.8 µM): 0.638 | relative viability ([15]; first compound 2.53 µM): 0.568 | relative viability ([15]; first compound 8 µM): 0.679 | relative viability ([16]; first compound 0.08 µM): 0.632 | relative viability ([16]; first compound 0.253 µM): 0.544 | relative viability ([16]; first compound 0.8 µM): 0.512 | relative viability ([16]; first compound 2.53 µM): 0.651 | relative viability ([16]; first compound 8 µM): 0.562 | relative viability ([17]; first compound 0.08 µM): 0.325 | relative viability ([17]; first compound 0.253 µM): 0.0459 | relative viability ([17]; first compound 0.8 µM): 0.224 | relative viability ([17]; first compound 2.53 µM): 0.171 | relative viability ([17]; first compound 8 µM): 0.462 | relative viability ([18]; first compound 0.08 µM): 0.462 | relative viability ([18]; first compound 0.253 µM): 0.409 | relative viability ([18]; first compound 0.8 µM): 0.46 | relative viability ([18]; first compound 2.53 µM): 0.415 | relative viability ([18]; first compound 8 µM): 0.437 | relative viability ([19]; first compound 0.08 µM): 0.517 | relative viability ([19]; first compound 0.253 µM): 0.376 | relative viability ([19]; first compound 0.8 µM): 0.451 | relative viability ([19]; first compound 2.53 µM): 0.377 | relative viability ([19]; first compound 8 µM): 0.412 | relative viability ([20]; first compound 0.08 µM): 0.518 | relative viability ([20]; first compound 0.253 µM): 0.55 | relative viability ([20]; first compound 0.8 µM): 0.516 | relative viability ([20]; first compound 2.53 µM): 0.559 | relative viability ([20]; first compound 8 µM): 0.621 | relative viability ([21]; first compound 0.08 µM): 0.521 | relative viability ([21]; first compound 0.253 µM): 0.511 | relative viability ([21]; first compound 0.8 µM): 0.483 | relative viability ([21]; first compound 2.53 µM): 0.52 | relative viability ([21]; first compound 8 µM): 0.346
